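Step 1: Grow cells in 96-well plates. Step 2: Expose to compound for 48 hours at 5 concentrations. Step 3: Interpolate endpoints linearly; if unreached, use highest concentration. GI50 is the concentration that inhibits growth by half. TGI: concentration producing complete growth inhibition.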
Columns and labels:
Experiment in all cases: NCI anticancer screen, dose series, 48 h
UACC-62 melanoma = tested on: UACC-62 melanoma
MDA-MB-231 breast = tested on: MDA-MB-231 breast
ACHN renal = tested on: ACHN renal
SF-268 CNS = tested on: SF-268 CNS
M14 melanoma = tested on: M14 melanoma
TK-10 renal = tested on: TK-10 renal
T-47D breast = tested on: T-47D breast
U251 CNS = tested on: U251 CNS
SNB-19 CNS = tested on: SNB-19 CNS
SK-MEL-5 melanoma = tested on: SK-MEL-5 melanoma

CCCCCCCN(CCCCCCC)C(=N)c1ccnc2ccccc12
GI50 (UACC-62 melanoma): 1520 nM
TGI (UACC-62 melanoma): 3.05 µM
GI50 (MDA-MB-231 breast): 1620 nM
TGI (MDA-MB-231 breast): 3.58 µM
GI50 (ACHN renal): 1620 nM
TGI (ACHN renal): 3.07 µM
GI50 (SF-268 CNS): 1480 nM
TGI (SF-268 CNS): 3.03 µM
GI50 (M14 melanoma): 1330 nM
TGI (M14 melanoma): 2.76 µM
GI50 (TK-10 renal): 1510 nM
TGI (TK-10 renal): 2.97 µM
GI50 (T-47D breast): 1780 nM
TGI (T-47D breast): 4.3 µM
GI50 (U251 CNS): 1660 nM
TGI (U251 CNS): 3.11 µM
GI50 (SNB-19 CNS): 1790 nM
TGI (SNB-19 CNS): 3.68 µM
GI50 (SK-MEL-5 melanoma): 1510 nM
TGI (SK-MEL-5 melanoma): 2.96 µM

O=C(Nc1ccc2ncnc(Nc3ccc(Oc4cccc(F)c4)c(Cl)c3)c2c1)c1ccc(CN2CCOCC2)cc1
GI50 (UACC-62 melanoma): 1780 nM
TGI (UACC-62 melanoma): 3.43 µM
GI50 (MDA-MB-231 breast): 2680 nM
TGI (MDA-MB-231 breast): 9.03 µM
GI50 (ACHN renal): 2260 nM
TGI (ACHN renal): 9.55 µM
GI50 (SF-268 CNS): 2600 nM
TGI (SF-268 CNS): 18.1 µM
GI50 (M14 melanoma): 2030 nM
TGI (M14 melanoma): 4.68 µM
GI50 (TK-10 renal): 3080 nM
TGI (TK-10 renal): 13.5 µM
GI50 (T-47D breast): 1090 nM
TGI (T-47D breast): 4.2 µM
GI50 (U251 CNS): 2960 nM
TGI (U251 CNS): 17.7 µM
GI50 (SNB-19 CNS): 3530 nM
TGI (SNB-19 CNS): > 100 µM
GI50 (SK-MEL-5 melanoma): 1740 nM
TGI (SK-MEL-5 melanoma): 3.25 µM

CC(=Nc1ccccc1)C1=C(O)C(Cc2cccc(F)c2)NC1=O (stereo not given)
GI50 (UACC-62 melanoma): 54.6 nM
TGI (UACC-62 melanoma): > 100 µM
GI50 (MDA-MB-231 breast): 178 nM
TGI (MDA-MB-231 breast): 1.93 µM
GI50 (ACHN renal): 69.4 nM
TGI (ACHN renal): > 100 µM
GI50 (SF-268 CNS): 71 nM
TGI (SF-268 CNS): > 100 µM
GI50 (M14 melanoma): 48.7 nM
TGI (M14 melanoma): > 100 µM
GI50 (TK-10 renal): 6150 nM
TGI (TK-10 renal): > 100 µM
GI50 (T-47D breast): 42.5 nM
TGI (T-47D breast): > 100 µM
GI50 (U251 CNS): 70.2 nM
TGI (U251 CNS): > 100 µM
GI50 (SNB-19 CNS): 156 nM
TGI (SNB-19 CNS): > 100 µM
GI50 (SK-MEL-5 melanoma): 34.3 nM
TGI (SK-MEL-5 melanoma): 1.82 µM

COC12C=C/C(=C(/C(=O)OCCSc3ccnn3C)C(=O)CCCCCCCCC3(OC)C=C/C(=C(/C(=O)OCCSc4ccnn4C)C(=O)CCCCCCCC1)O3)O2
GI50 (UACC-62 melanoma): 716 nM
TGI (UACC-62 melanoma): 1.85 µM
GI50 (MDA-MB-231 breast): 1050 nM
TGI (MDA-MB-231 breast): 3.06 µM
GI50 (ACHN renal): 1070 nM
TGI (ACHN renal): > 32.5 µM
GI50 (SF-268 CNS): 1150 nM
TGI (SF-268 CNS): > 32.5 µM
GI50 (M14 melanoma): 873 nM
TGI (M14 melanoma): 2.4 µM
GI50 (TK-10 renal): 2350 nM
TGI (TK-10 renal): > 32.5 µM
GI50 (T-47D breast): 1260 nM
TGI (T-47D breast): > 32.5 µM
GI50 (U251 CNS): 979 nM
TGI (U251 CNS): 3.32 µM
GI50 (SNB-19 CNS): 1880 nM
TGI (SNB-19 CNS): > 32.5 µM
GI50 (SK-MEL-5 melanoma): 581 nM
TGI (SK-MEL-5 melanoma): 1.09 µM

COc1ccc(-c2nsc3c2NC(=O)CC3c2ccc3c(c2)OCCO3)cc1 (stereo not given)
GI50 (UACC-62 melanoma): 482 nM
TGI (UACC-62 melanoma): > 100 µM
GI50 (MDA-MB-231 breast): 1590 nM
TGI (MDA-MB-231 breast): > 100 µM
GI50 (ACHN renal): 892 nM
TGI (ACHN renal): > 100 µM
GI50 (SF-268 CNS): 1920 nM
TGI (SF-268 CNS): > 100 µM
GI50 (M14 melanoma): 397 nM
TGI (M14 melanoma): > 100 µM
GI50 (TK-10 renal): 1870 nM
TGI (TK-10 renal): > 100 µM
GI50 (T-47D breast): 454 nM
TGI (T-47D breast): > 100 µM
GI50 (U251 CNS): 500 nM
TGI (U251 CNS): > 100 µM
GI50 (SNB-19 CNS): 924 nM
TGI (SNB-19 CNS): > 100 µM
GI50 (SK-MEL-5 melanoma): 370 nM
TGI (SK-MEL-5 melanoma): 5.86 µM

CCNc1cc2oc(=O)cc(C(F)(F)F)c2cc1C
TGI (UACC-62 melanoma): > 100 µM
TGI (MDA-MB-231 breast): > 100 µM
TGI (ACHN renal): > 100 µM
TGI (SF-268 CNS): > 100 µM
TGI (M14 melanoma): > 100 µM
TGI (TK-10 renal): > 100 µM
TGI (T-47D breast): > 100 µM
TGI (U251 CNS): > 100 µM
TGI (SNB-19 CNS): > 100 µM
TGI (SK-MEL-5 melanoma): > 100 µM

CCn1c(-c2c(Cl)cc(O)cc2Cl)cc2c(Cl)cc(O)cc21
TGI (UACC-62 melanoma): 32.8 µM
TGI (MDA-MB-231 breast): 31 µM
TGI (ACHN renal): 16.9 µM
TGI (SF-268 CNS): 16.1 µM
TGI (M14 melanoma): 91.5 µM
TGI (TK-10 renal): 59.2 µM
TGI (T-47D breast): 27.4 µM
TGI (U251 CNS): 17 µM
TGI (SNB-19 CNS): 28.3 µM
TGI (SK-MEL-5 melanoma): 12.5 µM

From PubChem BioAssay (NCI)
